For one assay, the system named is Pyricularia oryzae. The experiment in a line: microbe, parasite or virus in culture. Format: cell-based. The conditions noted are these: 168 h, read-out: % control compared to the untreated check (radial growth).
The test system of a further assay is Rhizoctonia solani. The experiment in a line: Rhizoctonia solani (rice sheath blight/potato black scurf) in vitro test, radial growth on Potato Dextrose Agar. Format: cell-based. The conditions noted are these: 168 h, 300 ppm, seven days, 25° C., read-out: % control compared to the untreated check (radial growth).
A further assay has as its system Botrytis cinerea. The experiment in a line: Botrytis cinerea (gray mold) in vitro test, radial growth on Potato Dextrose Agar. As to conditions: 168 h, 300 ppm, seven days, 22° C., read-out: % (control) compared to the untreated check (radial growth). Type of assay: cell-based.
Assay [1] relates to Alternaria solani. The experiment in a line: Alternaria solani (early blight of tomato/potato) in vitro test, radial growth on Potato Dextrose Agar. Format: cell-based. As to conditions: 168 h, 300 ppm, seven days, 25° C., read-out: % control compared to the untreated check (radial growth).
A further assay concerns Colletotrichum capsici. The experiment in a line: Colletotrichum capsici (anthracnose) in vitro test, radial growth on Potato Dextrose Agar. Type of assay: cell-based. The conditions noted are these: Colletotrichum truncatum, 168 h; 300 ppm; seven days, 25° C.; read-out: % control compared to the untreated check (radial growth).
For a further assay, the system named is Septoria lycopersici. The experiment in a line: Septoria lycopersici (leaf spot of tomato) in vitro test, radial growth on Potato Dextrose Agar. Format: cell-based. As to conditions: 168 h, seven days, 25° C., read-out: % control compared to the untreated check (radial growth).
The subject of assay [2] is Fusarium culmorum. As to the kind of experiment: Fusarium culmorum (foot rot of cereals) in vitro test, radial growth on Potato Dextrose Agar. As to conditions: Fusarium culmorum, 168 h, read-out: % control compared to the untreated check (radial growth). Type of assay: cell-based.
The subject of assay [3] is Fusarium culmorum. The experiment in a line: Greenhouse Fusarium culmorum test in wheat, preventive. Type of assay: in vivo. The conditions noted are these: 24 h, read-out: Efficacy (% control), disease severity vs untreated check. The method, then:
Compounds were dissolved in 2% DMSO/Acetone & then mixed with water to calibrated spray volume of 50 ml. This 50 ml spray solution was poured into the spray bottles for further applications.
To test the preventive activity of compounds, healthy young wheat plants raised in the greenhouse were sprayed with active compound preparation at the stated application rates inside the spray cabinets using hallowcone nozzles. One day after treatment, the plants were inoculated with spore suspension (2% Malt) containing 2×10^6 Fusarium culmorum inoculum. The inoculated plants were then kept in greenhouse chamber at 24° C. temperature and 80-90% relative humidity for disease expression.
A visual assessment of compound's performance was carried by rating the disease severity (0-100% scale) on treated plants on 3, 7, 10 and 15 days after application. Efficacy (% control) of the compounds was calculated by comparing the disease rating in the treatment with untreated control. The sprayed plants were also assessed for compound's phytotoxic effects by recording symptoms like necrosis, chlorosis and stunting.

In another assay the test system is Botrytis cinera. As to the kind of experiment: Greenhouse Botrytis cinera test in tomato, preventive. Type of assay: in vivo. The conditions noted are these: 24 h, plants sprayed one day before inoculation, read-out: Efficacy (% control), disease severity vs untreated check.
For assay [4], the system named is Alternaria solani. The experiment in a line: Greenhouse Alternaria solani test in tomato, preventive. Type of assay: in vivo. As to conditions: 24 h, tomato plants sprayed one day before inoculation, read-out: Efficacy (% control), disease severity vs untreated check. As for the experimental part:
Compounds were dissolved in 2% DMSO/Acetone & then mixed with water to calibrated spray volume of 50 ml. This 50 ml spray solution was poured into the spray bottles for further applications. To test the preventive activity of compounds, healthy young Tomato plants raised in the greenhouse were sprayed with active compound preparation at the stated application rates inside the spray cabinets using hallowcone nozzles. One day after treatment, the plants were inoculated with spore suspension (2% Malt) containing 0.24×10^6 Alternaria solani inoculum. The inoculated plants were then kept in greenhouse chamber at 22-24° C. temperature and 90-95% relative humidity for disease expression. […] Efficacy (% control) of the compounds was calculated by comparing the disease rating in the treatment with untreated control. The sprayed plants were also assessed for compound's phytotoxic effects by recording symptoms like necrosis, chlorosis and stunting.

A value given as a limit tells only on which side of the number the result lay.

Turning to `CCN(C)C=Nc1cc(C)c(Cc2ccccc2Cl)cc1Cl` [Compound 17, N′-(2-chloro-4-(2-chlorobenzyl)-5-methylphenyl)-N-ethyl-N-methylformimidamide], the inhibition of growth at 300 ppm in the assay with Pyricularia oryzae is over 75%; in the assay with Rhizoctonia solani it was over 80%; in the assay on Botrytis cinerea it was over 80%; in the assay on Alternaria solani [1], over 75%; in the assay on Colletotrichum capsici, over 80%; with Septoria lycopersici, over 70%. Besides, the inhibition of growth at 300 ppm in the assay on Fusarium culmorum [2] came out at 75%. Besides, the pest or weed control at 500 ppm in the assay with Fusarium culmorum [3] and in the assay on Botrytis cinera was 70 to 100% each time.

As to `CCN(C)C=Nc1cc(C)c(Cc2ccc(C(F)(F)F)cc2)cc1C` [Compound 97, N′-(2,5-dimethyl-4-(4-(trifluoromethyl)benzyl)phenyl)-N-ethyl-N-methylformimidamide], the pest or weed control at 500 ppm in the assay on Alternaria solani [4] lay within 70 to 100%.

As for `CCN(C)C=Nc1cc(C)c(Cc2ccc(F)c(Cl)c2)cc1C` [Compound 28, N′-(4-(3-chloro-4-fluorobenzyl)-2,5-dimethylphenyl)-N-ethyl-N-methylformimidamide], the inhibition of growth at 300 ppm was over 75% in the assay with Pyricularia oryzae; over 80% with Rhizoctonia solani; over 80% with Botrytis cinerea; over 75% in the assay with Alternaria solani [1]; over 80% in the assay on Colletotrichum capsici; over 70% with Septoria lycopersici. Moreover, the inhibition of growth at 300 ppm with Fusarium culmorum [2] came to 75%. For the same compound, the pest or weed control at 500 ppm in the assay with Fusarium culmorum [3] and in the assay with Botrytis cinera was 70 to 100% throughout.

Take `CCN(C)C=Nc1cc(C)c(Cc2ccccc2Cl)cc1C` [Compound 18, N′-(4-(2-chlorobenzyl)-2,5-dimethylphenyl)-N-ethyl-N-methylformimidamide]: the inhibition of growth at 300 ppm was over 75% with Pyricularia oryzae; over 80% with Rhizoctonia solani; over 80% in the assay with Botrytis cinerea; over 75% in the assay with Alternaria solani [1]; over 80% in the assay with Colletotrichum capsici; over 70% in the assay on Septoria lycopersici. Besides, the inhibition of growth at 300 ppm in the assay on Fusarium culmorum [2] was 75%. Besides, the pest or weed control at 500 ppm in the assay on Fusarium culmorum [3] and with Botrytis cinera was 70 to 100% each time.

Regarding `CCN(C)C=Nc1cc(C)c(Cc2ccc(Cl)cc2)cc1C` [Compound 7, N′-(4-(4-chlorobenzyl)-2,5-dimethylphenyl)-N-ethyl-N-methylformimidamide], the inhibition of growth at 300 ppm in the assay on Pyricularia oryzae is over 75%; with Rhizoctonia solani, over 80%; in the assay with Botrytis cinerea, over 80%; in the assay on Alternaria solani [1], over 75%; in the assay with Colletotrichum capsici, over 80%; in the assay on Septoria lycopersici, over 70%. Besides, the inhibition of growth at 300 ppm in the assay with Fusarium culmorum [2] turned out to be 75%. In addition, the pest or weed control at 500 ppm in the assay with Fusarium culmorum [3] and in the assay on Botrytis cinera was 70 to 100% in each case.

Regarding `Cc1cc(N=CN2CCOCC2)c(C)cc1Cc1cccc(Br)c1F` [Compound 36, N-(4-(3-bromo-2-fluorobenzyl)-2,5-dimethylphenyl)-1-morpholinomethanimine], the inhibition of growth at 300 ppm was over 75% in the assay on Pyricularia oryzae and over 80% in the assay on Rhizoctonia solani. For the same compound, the pest or weed control at 500 ppm in the assay on Alternaria solani [4] lay in the range of 70 to 100%.

Turning to `CCN(C)C=Nc1cc(C)c(Cc2ccc(Br)cc2)cc1Cl` [Compound 22, N′-(4-(4-bromobenzyl)-2-chloro-5-methylphenyl)-N-ethyl-N-methylformimidamide], the inhibition of growth at 300 ppm in the assay with Pyricularia oryzae is over 75%; in the assay with Rhizoctonia solani, over 80%; with Botrytis cinerea, over 80%; in the assay on Alternaria solani [1], over 75%; in the assay on Colletotrichum capsici, over 80%; with Septoria lycopersici, over 70%. Moreover, the inhibition of growth at 300 ppm with Fusarium culmorum [2] worked out at 75%. Moreover, the pest or weed control at 500 ppm in the assay with Fusarium culmorum [3] and in the assay with Botrytis cinera was 70 to 100% each time.
